Assay results taken from ChEMBL document CHEMBL1201862, “PubChem BioAssay data set” (2004).
Blank lines part the entries; values can stand above or below the compound they belong to. Activity calls are given as the source filed them.

Columns and labels:
Format in all cases: functional
[1] = target: DNA (cytosine-5)-methyltransferase 1 (Homo sapiens, UniProt P26358); assay: inhibition of DNA methylation by DNMT1 – biochemical, fluorescent molecular beacon, confirmation (AID 602386)
[2] = target: T1, Low molecular weight phosphotyrosine protein phosphatase (Homo sapiens, UniProt P24666); conditions: read-out: IC50_Mean
[3] = target: T1, Low molecular weight phosphotyrosine protein phosphatase; conditions: read-out: IC50_Mean; remark: listed apart in the source
[4] = mouse fibroblast viability loss – cell-based, cherry-pick samples, set 2, cytotoxicity control for T. cruzi growth inhibitor project, dose response (AID 651817); conditions: NIH3T3
[5] = intracellular Trypanosoma cruzi inhibitors in host cells – cell-based, plate reader, cherry-pick samples, set 3, dose response (AID 651818);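 note: compounds incubated with infected cells for about four days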
[6] = inhibitors of EBV LMP1 NF-kappaB signaling – cell-based, luciferase reporter, luminescence, dry powder, set 2, dose response (AID 624376)
[7] = cytotoxicity in HEK293 background cells – cell-based, dry powder, set 2, counter-screen for EBV LMP1 inhibitor project, dose response (AID 624374)
[8] = target: Arf-GAP with SH3 domain, ANK repeat and PH domain-containing protein 1 (Homo sapiens, UniProt Q9ULH1);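 note: biochemical fluorescence polarization dose–response screen measuring inhibition of ASAP1; ASAP1 GAP domain stimulating GTP hydrolysis by truncated human ARF1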
Chain of Arf-GAP with SH3 domain, ANK repeat and PH domain-containing protein 1 (Q9ULH1 whole entry, the tested form may be a part): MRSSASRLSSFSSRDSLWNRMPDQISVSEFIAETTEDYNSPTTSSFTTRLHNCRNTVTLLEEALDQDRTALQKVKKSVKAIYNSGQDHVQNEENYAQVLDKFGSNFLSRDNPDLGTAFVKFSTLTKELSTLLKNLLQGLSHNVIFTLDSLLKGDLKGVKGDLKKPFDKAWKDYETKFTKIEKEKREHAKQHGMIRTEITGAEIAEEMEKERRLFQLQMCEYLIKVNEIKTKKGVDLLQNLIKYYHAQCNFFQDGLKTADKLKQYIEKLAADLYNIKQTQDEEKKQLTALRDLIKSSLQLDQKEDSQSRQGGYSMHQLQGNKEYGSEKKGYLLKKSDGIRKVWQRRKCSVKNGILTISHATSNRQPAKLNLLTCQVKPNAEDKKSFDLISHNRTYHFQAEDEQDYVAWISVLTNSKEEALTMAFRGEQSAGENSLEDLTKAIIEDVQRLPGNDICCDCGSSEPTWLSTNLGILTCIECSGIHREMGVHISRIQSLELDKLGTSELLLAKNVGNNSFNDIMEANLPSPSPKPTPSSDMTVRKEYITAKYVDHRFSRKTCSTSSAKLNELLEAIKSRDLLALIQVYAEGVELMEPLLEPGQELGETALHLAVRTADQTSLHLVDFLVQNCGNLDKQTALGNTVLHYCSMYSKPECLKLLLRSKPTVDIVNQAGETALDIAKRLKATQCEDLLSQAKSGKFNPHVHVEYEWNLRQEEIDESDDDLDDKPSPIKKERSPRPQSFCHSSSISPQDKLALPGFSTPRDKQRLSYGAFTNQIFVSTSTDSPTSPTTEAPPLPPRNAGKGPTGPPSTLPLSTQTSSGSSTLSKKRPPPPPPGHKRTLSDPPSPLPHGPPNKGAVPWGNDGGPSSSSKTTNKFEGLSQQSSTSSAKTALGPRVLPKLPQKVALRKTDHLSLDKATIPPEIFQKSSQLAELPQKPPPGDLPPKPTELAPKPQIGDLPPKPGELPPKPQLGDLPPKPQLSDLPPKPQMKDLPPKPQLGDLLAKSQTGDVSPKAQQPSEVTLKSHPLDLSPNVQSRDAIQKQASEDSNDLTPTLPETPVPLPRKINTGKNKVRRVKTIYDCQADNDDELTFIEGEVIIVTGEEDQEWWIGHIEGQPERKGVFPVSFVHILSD

T1 sequence (P24666 whole entry): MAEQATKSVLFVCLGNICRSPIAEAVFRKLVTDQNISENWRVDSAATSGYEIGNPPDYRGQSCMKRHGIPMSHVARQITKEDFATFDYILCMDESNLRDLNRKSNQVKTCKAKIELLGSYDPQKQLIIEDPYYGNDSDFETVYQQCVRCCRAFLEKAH
Chain of DNA (cytosine-5)-methyltransferase 1 (P26358 whole entry): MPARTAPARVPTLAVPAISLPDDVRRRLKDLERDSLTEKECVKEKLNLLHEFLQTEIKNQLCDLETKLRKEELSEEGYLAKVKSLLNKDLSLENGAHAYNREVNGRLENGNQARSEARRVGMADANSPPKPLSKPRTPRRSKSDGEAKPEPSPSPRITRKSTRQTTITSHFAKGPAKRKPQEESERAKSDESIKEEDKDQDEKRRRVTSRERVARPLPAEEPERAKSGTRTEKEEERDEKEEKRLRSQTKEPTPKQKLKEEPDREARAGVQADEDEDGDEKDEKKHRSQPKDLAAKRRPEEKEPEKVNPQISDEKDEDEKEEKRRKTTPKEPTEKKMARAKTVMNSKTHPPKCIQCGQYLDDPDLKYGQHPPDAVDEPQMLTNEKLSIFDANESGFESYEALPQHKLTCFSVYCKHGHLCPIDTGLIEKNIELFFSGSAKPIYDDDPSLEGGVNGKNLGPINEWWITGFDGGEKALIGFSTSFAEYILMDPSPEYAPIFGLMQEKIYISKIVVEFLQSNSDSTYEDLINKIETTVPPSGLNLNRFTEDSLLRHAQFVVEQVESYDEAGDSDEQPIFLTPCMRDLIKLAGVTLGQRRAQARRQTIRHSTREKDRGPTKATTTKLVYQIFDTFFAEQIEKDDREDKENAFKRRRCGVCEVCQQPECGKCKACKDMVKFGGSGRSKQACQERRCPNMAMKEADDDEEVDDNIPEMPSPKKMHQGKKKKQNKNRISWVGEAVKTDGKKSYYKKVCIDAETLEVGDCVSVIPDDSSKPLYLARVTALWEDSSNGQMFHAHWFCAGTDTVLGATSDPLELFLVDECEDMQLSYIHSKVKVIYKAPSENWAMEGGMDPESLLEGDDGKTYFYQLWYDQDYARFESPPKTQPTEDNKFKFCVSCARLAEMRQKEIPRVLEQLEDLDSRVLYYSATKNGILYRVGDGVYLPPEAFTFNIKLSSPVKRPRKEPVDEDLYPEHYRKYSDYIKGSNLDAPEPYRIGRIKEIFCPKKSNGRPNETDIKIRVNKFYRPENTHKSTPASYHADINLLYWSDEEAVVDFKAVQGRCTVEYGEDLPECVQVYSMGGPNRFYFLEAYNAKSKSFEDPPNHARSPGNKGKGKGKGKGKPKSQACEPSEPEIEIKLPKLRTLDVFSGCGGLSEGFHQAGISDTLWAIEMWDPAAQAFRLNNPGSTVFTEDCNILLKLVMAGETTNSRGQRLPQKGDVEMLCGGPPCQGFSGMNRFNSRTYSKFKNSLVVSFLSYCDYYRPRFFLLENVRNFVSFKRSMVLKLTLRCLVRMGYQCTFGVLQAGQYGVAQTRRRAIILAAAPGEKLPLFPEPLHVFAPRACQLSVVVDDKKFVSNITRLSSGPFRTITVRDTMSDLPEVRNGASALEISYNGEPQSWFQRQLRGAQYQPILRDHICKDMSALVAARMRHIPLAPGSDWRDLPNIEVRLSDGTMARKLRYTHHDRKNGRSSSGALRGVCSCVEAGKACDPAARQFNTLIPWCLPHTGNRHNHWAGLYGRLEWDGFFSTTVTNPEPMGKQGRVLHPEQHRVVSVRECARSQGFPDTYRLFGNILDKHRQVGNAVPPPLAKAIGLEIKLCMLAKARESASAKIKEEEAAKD

- IC50 [1]: 4.93 µM (active)
- IC50 [2]: 10.4 µM (active)
- IC50 [3]: > 80 µM (inactive)
SMILES: Cc1ccc(-c2nn(-c3ccccc3)cc2C=C2SC(=S)N(CCS(=O)(=O)O)C2=O)cc1

SMILES: Cc1ccc(S(=O)(=O)Nc2ccc3c(c2)CC(=O)N([C@@H](C)CO)C[C@H](C)[C@@H](CN(C)Cc2ccc(Cl)c(Cl)c2)O3)cc1
- AC50 [4]: 8.45 µM (active)
- AC50 [5]: 3.89 µM (active)

SMILES: O=C(Cc1ccccn1)NCC[C@@H]1CC[C@H](NC(=O)Nc2ccc(Cl)cc2)[C@@H](CO)O1
- AbsAC35 [6]: 74.18 µM
- AbsAC35 [7]: 102.52 µM

- IC50 [8]: 22.5 µM (inactive)
SMILES: O=[N+]([O-])c1ccc(OCCOc2ccccc2/C=N/n2cnnc2)cc1
